US7928236B2, “Fluorescent amino acid derivatives” (National University Corporation Okayama University, priority 2005, dated 2011)

Legend:
Absorption spectrum = type: physicochemical; conditions: in ethanol, water and ethanol/water (6:4), 2.3×10^−5M, room temperature
Experimental: Boc-badAla-OH prepared in Example 2 was dissolved respectively in ethanol, water and a mixture of ethanol and water (6:4) in a concentration of 2.3×10^−5M, and their absorption spectra were measured at room temperature using JASCO “V560” supplied by JASCO Corporation.

Fluorescence lifetime = type: physicochemical; conditions: 50 mM PBS (pH7.0), 3×10^−4M, room temperature, excitation 415 nm, measured at 500 nm
Experimental: Boc-badAla-OH prepared in Example 2 was dissolved in 50 mM PBS (pH7.0) in a concentration of 3×10^−4M, and fluorescence intensity was measured at room temperature at 500 nm, setting the excitation wavelength at 415 nm of blue laser from a simple-type beam system, using Hamamatsu “microchannel photomultiplier tube” supplied by Hamamatsu Photonics K.K. which was cooled to −30° C., and then fluorescence lifetime was measured.
As a result, the obtained fluorescence lifetime was τ=16.6 nanoseconds.
While the lifetime of BODIPY, a commercial product, was 5.7 nanoseconds (MeOH) on the literature, and that of FITC was 4.1 nanoseconds (0.01M NaOH) on the literature. The other primary spectroscopic properties of fluorescent probes were listed on the homepage of IOM GmbH (see, www.iom-berlin.de).

Photostability = type: physicochemical; conditions: water, 1.2×10^−6M, room temperature, continuous 468 nm irradiation for an hour
Experimental: Boc-badAla-OH prepared in Example 2 was dissolved in water in a concentration of 1.2×10^−6M, and photostability was examined at room temperature using ISA “FluoroMax-2” analyzer, irradiating a beam of 468 nm excitation wavelength continuously for an hour. As a result, […] an hour after the irradiation, it held 95% fluorescence intensity of that at the start of the experiment (FIG. 6). […] On the other hand, values of commercial products BODIPY and FITC shown on the literature, obtained by dissolving them respectively in TBS buffer for measurement on FluoroMax, were respectively 88% and 85%.

[1] = 0.01M NaOH, on the literature; cited from earlier work
[2] = TBS buffer, measured on FluoroMax, values on the literature; cited from earlier work

maximum absorption wavelength (Absorption spectrum)	fluorescence lifetime τ (Fluorescence lifetime) [nanoseconds]	fluorescence intensity held relative to start of experiment (Photostability) [%]	Structure (SMILES)	fluorescence lifetime [1] [nanoseconds]	photostability (fluorescence intensity held) [2] [%]
around 460 nm	16.6	95	CC(C)(C)OC(=O)NC(Cc1ccc2[nH]c3cc4ccccc4cc3c(=O)c2c1)C(=O)O (centres unmarked) [Boc-badAla-OH]		
			O=C1OC2(c3ccc(O)cc3Oc3cc(O)ccc32)c2ccc(N=C=S)cc21 [FITC]	4.1	85
